From ChEMBL document CHEMBL4665642, “Anticancer profile of newly synthesized BRAF inhibitors possess 5-(pyrimidin-4-yl)imidazo[2,1-b]thiazole scaffold” (Bioorg Med Chem, 2019)

Tests used:
Format in all cases: functional
Conditions in all cases: read-out: Activity
UO-31 = assay: Cytotoxicity against human UO-31 cells assessed as cell viability at 10 uM incubated for 48 hrs by sulforhodamine B assay relative to control
SR = assay: Cytotoxicity against human SR cells assessed as cell viability at 10 uM incubated for 48 hrs by sulforhodamine B assay relative to control
NCI/ADR-RES = assay: Cytotoxicity against human NCI/ADR-RES cells assessed as cell viability at 10 uM incubated for 48 hrs by sulforhodamine B assay relative to control
IGROV-1 = assay: Cytotoxicity against human IGROV-1 cells assessed as cell viability at 10 uM incubated for 48 hrs by sulforhodamine B assay relative to control
T47D = assay: Cytotoxicity against human T47D cells assessed as cell viability at 10 uM incubated for 48 hrs by sulforhodamine B assay relative to control
MDA-MB-435 = assay: Cytotoxicity against human MDA-MB-435 cells assessed as cell viability at 10 uM incubated for 48 hrs by sulforhodamine B assay relative to control
A549 = assay: Cytotoxicity against human A549 cells assessed as cell viability at 10 uM incubated for 48 hrs by sulforhodamine B assay relative to control
SK-MEL-5 = assay: Cytotoxicity against human SK-MEL-5 cells assessed as cell viability at 10 uM incubated for 48 hrs by sulforhodamine B assay relative to control
NCI-H226 = assay: Cytotoxicity against human NCI-H226 cells assessed as cell viability at 10 uM incubated for 48 hrs by sulforhodamine B assay relative to control
OVCAR-5 = assay: Cytotoxicity against human OVCAR-5 cells assessed as cell viability at 10 uM incubated for 48 hrs by sulforhodamine B assay relative to control
SF-295 = assay: Cytotoxicity against human SF-295 cells assessed as cell viability at 10 uM incubated for 48 hrs by sulforhodamine B assay relative to control
BT-549 = assay: Cytotoxicity against human BT-549 cells assessed as cell viability at 10 uM incubated for 48 hrs by sulforhodamine B assay relative to control
SK-MEL-2 = assay: Cytotoxicity against human SK-MEL-2 cells assessed as cell viability at 10 uM incubated for 48 hrs by sulforhodamine B assay relative to control
MDA-MB-231 = assay: Cytotoxicity against human MDA-MB-231 cells assessed as cell viability at 10 uM incubated for 48 hrs by sulforhodamine B assay relative to control
HCC 2998 = assay: Cytotoxicity against human HCC 2998 cells assessed as cell viability at 10 uM incubated for 48 hrs by sulforhodamine B assay relative to control
SF-539 = assay: Cytotoxicity against human SF-539 cells assessed as cell viability at 10 uM incubated for 48 hrs by sulforhodamine B assay relative to control
786-0 = assay: Cytotoxicity against human 786-0 cells assessed as cell viability at 10 uM incubated for 48 hrs by sulforhodamine B assay relative to control
COLO 205 = assay: Cytotoxicity against human COLO 205 cells assessed as cell viability at 10 uM incubated for 48 hrs by sulforhodamine B assay relative to control
HCT-15 = assay: Cytotoxicity against human HCT-15 cells assessed as cell viability at 10 uM incubated for 48 hrs by sulforhodamine B assay relative to control
SF-268 = assay: Cytotoxicity against human SF-268 cells assessed as cell viability at 10 uM incubated for 48 hrs by sulforhodamine B assay relative to control
NCI-H322M = assay: Cytotoxicity against human NCI-H322M cells assessed as cell viability at 10 uM incubated for 48 hrs by sulforhodamine B assay relative to control
RPMI-8226 = assay: Cytotoxicity against human RPMI-8226 cells assessed as cell viability at 10 uM incubated for 48 hrs by sulforhodamine B assay relative to control
UACC-257 = assay: Cytotoxicity against human UACC-257 cells assessed as cell viability at 10 uM incubated for 48 hrs by sulforhodamine B assay relative to control
Malme-3M = assay: Cytotoxicity against human Malme-3M cells assessed as cell viability at 10 uM incubated for 48 hrs by sulforhodamine B assay relative to control
NCI-H460 = assay: Cytotoxicity against human NCI-H460 cells assessed as cell viability at 10 uM incubated for 48 hrs by sulforhodamine B assay relative to control
SNB-75 = assay: Cytotoxicity against human SNB-75 cells assessed as cell viability at 10 uM incubated for 48 hrs by sulforhodamine B assay relative to control
DU-145 = assay: Cytotoxicity against human DU-145 cells assessed as cell viability at 10 uM incubated for 48 hrs by sulforhodamine B assay relative to control
Hs-578T = assay: Cytotoxicity against human HS-578T cells assessed as cell viability at 10 uM incubated for 48 hrs by sulforhodamine B assay relative to control
K562 = assay: Cytotoxicity against human K562 cells assessed as cell viability at 10 uM incubated for 48 hrs by sulforhodamine B assay relative to control
SK-OV-3 = assay: Cytotoxicity against human SK-OV-3 cells assessed as cell viability at 10 uM incubated for 48 hrs by sulforhodamine B assay relative to control
U-251 = assay: Cytotoxicity against human U-251 cells assessed as cell viability at 10 uM incubated for 48 hrs by sulforhodamine B assay relative to control
MDA-MB-468 = assay: Cytotoxicity against human MDA-MB-468 cells assessed as cell viability at 10 uM incubated for 48 hrs by sulforhodamine B assay relative to control
ACHN = assay: Cytotoxicity against human ACHN cells assessed as cell viability at 10 uM incubated for 48 hrs by sulforhodamine B assay relative to control
HL-60(TB) = assay: Cytotoxicity against human HL-60(TB) cells assessed as cell viability at 10 uM incubated for 48 hrs by sulforhodamine B assay relative to control
M14 = assay: Cytotoxicity against human M14 cells assessed as cell viability at 10 uM incubated for 48 hrs by sulforhodamine B assay relative to control
TK-10 = assay: Cytotoxicity against human TK-10 cells assessed as cell viability at 10 uM incubated for 48 hrs by sulforhodamine B assay relative to control
OVCAR-8 = assay: Cytotoxicity against human OVCAR-8 cells assessed as cell viability at 10 uM incubated for 48 hrs by sulforhodamine B assay relative to control
NCI-H23 = assay: Cytotoxicity against human NCI-H23 cells assessed as cell viability at 10 uM incubated for 48 hrs by sulforhodamine B assay relative to control
CCRF-CEM = assay: Cytotoxicity against human CCRF-CEM cells assessed as cell viability at 10 uM incubated for 48 hrs by sulforhodamine B assay relative to control
SW-620 = assay: Cytotoxicity against human SW-620 cells assessed as cell viability at 10 uM incubated for 48 hrs by sulforhodamine B assay relative to control

SMILES | viability at 10 µM (UO-31) | viability at 10 µM (SR) | viability at 10 µM (NCI/ADR-RES) | viability at 10 µM (IGROV-1) | viability at 10 µM (T47D) | viability at 10 µM (MDA-MB-435) | viability at 10 µM (A549) | viability at 10 µM (SK-MEL-5) | viability at 10 µM (NCI-H226) | viability at 10 µM (OVCAR-5) | viability at 10 µM (SF-295) | viability at 10 µM (BT-549) | viability at 10 µM (SK-MEL-2) | viability at 10 µM (MDA-MB-231) | viability at 10 µM (HCC 2998) | viability at 10 µM (SF-539) | viability at 10 µM (786-0) | viability at 10 µM (COLO 205) | viability at 10 µM (HCT-15) | viability at 10 µM (SF-268) | further results
O=S(=O)(NCCCNc1nccc(-c2c(-c3cccc(F)c3)nc3sccn23)n1)c1ccc(Cl)cc1 | 41.8% | 92.9% | 67.4% | 42.7% | 25.6% | 53.1% | 66.9% | 40.9% | 46.9% | 125% | 87.1% | 85.4% | 79.9% | 77.9% | 123% | 99.3% | 83.6% | 41.3% | 49.6% | 76.3% | viability at 10 µM (NCI-H322M): 93.2%; viability at 10 µM (RPMI-8226): 55.3%; viability at 10 µM (UACC-257): 103%; viability at 10 µM (Malme-3M): 107%; viability at 10 µM (NCI-H460): 75.4%; viability at 10 µM (SNB-75): 102%; viability at 10 µM (DU-145): 78.2%; viability at 10 µM (Hs-578T): 94.6%; viability at 10 µM (K562): 31.7%; viability at 10 µM (SK-OV-3): 78.1%; viability at 10 µM (U-251): 90.2%; viability at 10 µM (MDA-MB-468): 63.6%; viability at 10 µM (ACHN): 60%; viability at 10 µM (HL-60(TB)): 106%; viability at 10 µM (M14): 66.1%; viability at 10 µM (TK-10): 99%; viability at 10 µM (OVCAR-8): 50.2%; viability at 10 µM (NCI-H23): 86%; viability at 10 µM (CCRF-CEM): 46.6%; viability at 10 µM (SW-620): 104%
O=S(=O)(NCCNc1nccc(-c2c(-c3cccc(F)c3)nc3sccn23)n1)c1ccc(C(F)(F)F)cc1 | 51.7% | 89.4% | 88.8% | 56.6% | 62.5% | 71.2% | 72.4% | 84% | 82.8% | 122% | 107% | 79.3% | 98.8% | 92.8% | 111% | 103% | 82.1% | 68.3% | 72.6% | 77.8% | viability at 10 µM (NCI-H322M): 96.5%; viability at 10 µM (RPMI-8226): 83.8%; viability at 10 µM (UACC-257): 109%; viability at 10 µM (Malme-3M): 115%; viability at 10 µM (NCI-H460): 94.7%; viability at 10 µM (SNB-75): 85%; viability at 10 µM (DU-145): 89.2%; viability at 10 µM (Hs-578T): 82.6%; viability at 10 µM (K562): 73.1%; viability at 10 µM (SK-OV-3): 71.8%; viability at 10 µM (U-251): 89.8%; viability at 10 µM (MDA-MB-468): 71.3%; viability at 10 µM (ACHN): 82.2%; viability at 10 µM (HL-60(TB)): 121%; viability at 10 µM (M14): 91.4%; viability at 10 µM (TK-10): 98.2%; viability at 10 µM (OVCAR-8): 84.1%; viability at 10 µM (NCI-H23): 86.8%; viability at 10 µM (CCRF-CEM): 80.6%; viability at 10 µM (SW-620): 110%
O=S(=O)(NCCCNc1nccc(-c2c(-c3cccc(F)c3)nc3sccn23)n1)c1cccc(F)c1 | 28.2% | 64.9% | 17.6% | 18.9% | -2.25% | 24% | 49.3% | 13.5% | 23.2% | 110% | 51.1% | 33.2% | 47.6% | 75.9% | 99.3% | 86.4% | 66.3% | 23.4% | 22.6% | 55.6% | viability at 10 µM (NCI-H322M): 79.9%; viability at 10 µM (RPMI-8226): 28%; viability at 10 µM (UACC-257): 50.8%; viability at 10 µM (Malme-3M): 63.2%; viability at 10 µM (NCI-H460): 58.3%; viability at 10 µM (SNB-75): 88.6%; viability at 10 µM (DU-145): 55.5%; viability at 10 µM (Hs-578T): 63.7%; viability at 10 µM (K562): 20.1%; viability at 10 µM (SK-OV-3): 66%; viability at 10 µM (U-251): 70%; viability at 10 µM (MDA-MB-468): 33%; viability at 10 µM (ACHN): 42.5%; viability at 10 µM (HL-60(TB)): 40.5%; viability at 10 µM (M14): 28.6%; viability at 10 µM (TK-10): 72.3%; viability at 10 µM (OVCAR-8): 18.4%; viability at 10 µM (NCI-H23): 38.8%; viability at 10 µM (CCRF-CEM): 24.7%; viability at 10 µM (SW-620): 76.7%
O=C(NCCNc1nccc(-c2c(-c3cccc(F)c3)nc3sccn23)n1)c1c(F)cccc1F | 20.8% | 26% | 56.9% | 12.1% | 26.7% | 17.4% | 29.1% | 17.1% | 40.7% | 72.7% | 66.8% | 56% | 62.4% | 81.2% | 70.4% | 65.9% | 44.2% | 19.2% | 31.1% | 54.4% | viability at 10 µM (NCI-H322M): 57.5%; viability at 10 µM (RPMI-8226): 41%; viability at 10 µM (UACC-257): 54.7%; viability at 10 µM (Malme-3M): 31.6%; viability at 10 µM (NCI-H460): 24.8%; viability at 10 µM (SNB-75): 59.5%; viability at 10 µM (DU-145): 50.1%; viability at 10 µM (Hs-578T): 53.3%; viability at 10 µM (K562): 40.2%; viability at 10 µM (SK-OV-3): 64.1%; viability at 10 µM (U-251): 49.7%; viability at 10 µM (MDA-MB-468): 54.3%; viability at 10 µM (ACHN): 26%; viability at 10 µM (HL-60(TB)): 86.4%; viability at 10 µM (M14): 29.3%; viability at 10 µM (TK-10): 66.6%; viability at 10 µM (OVCAR-8): 44.2%; viability at 10 µM (NCI-H23): 61.9%; viability at 10 µM (CCRF-CEM): 42.8%; viability at 10 µM (SW-620): 47.3%
